Marks after values point to notes of the source that are not given here.
Columns and labels:
CIC-1 ion channel = biological target: T1, CIC-1 ion channel (Rattus norvegicus, UniProt P35524); assay: Electrophysiological measurement (three micro-electrode Gm) of compound inhibition of CIC-1 in rat soleus muscle fibres; assay type: cell-based; details: whole rat soleus muscle, approx. 30° C., four increasing concentrations; mean ± spread, n = experiments; read-out: EC50 (inhibition of CIC-1 ion channel, reduction of Gm)
T1 construct: from tissue; host or cells: whole soleus muscle of 12-14 week old Wistar rats
T1 sequence (P35524 1-994): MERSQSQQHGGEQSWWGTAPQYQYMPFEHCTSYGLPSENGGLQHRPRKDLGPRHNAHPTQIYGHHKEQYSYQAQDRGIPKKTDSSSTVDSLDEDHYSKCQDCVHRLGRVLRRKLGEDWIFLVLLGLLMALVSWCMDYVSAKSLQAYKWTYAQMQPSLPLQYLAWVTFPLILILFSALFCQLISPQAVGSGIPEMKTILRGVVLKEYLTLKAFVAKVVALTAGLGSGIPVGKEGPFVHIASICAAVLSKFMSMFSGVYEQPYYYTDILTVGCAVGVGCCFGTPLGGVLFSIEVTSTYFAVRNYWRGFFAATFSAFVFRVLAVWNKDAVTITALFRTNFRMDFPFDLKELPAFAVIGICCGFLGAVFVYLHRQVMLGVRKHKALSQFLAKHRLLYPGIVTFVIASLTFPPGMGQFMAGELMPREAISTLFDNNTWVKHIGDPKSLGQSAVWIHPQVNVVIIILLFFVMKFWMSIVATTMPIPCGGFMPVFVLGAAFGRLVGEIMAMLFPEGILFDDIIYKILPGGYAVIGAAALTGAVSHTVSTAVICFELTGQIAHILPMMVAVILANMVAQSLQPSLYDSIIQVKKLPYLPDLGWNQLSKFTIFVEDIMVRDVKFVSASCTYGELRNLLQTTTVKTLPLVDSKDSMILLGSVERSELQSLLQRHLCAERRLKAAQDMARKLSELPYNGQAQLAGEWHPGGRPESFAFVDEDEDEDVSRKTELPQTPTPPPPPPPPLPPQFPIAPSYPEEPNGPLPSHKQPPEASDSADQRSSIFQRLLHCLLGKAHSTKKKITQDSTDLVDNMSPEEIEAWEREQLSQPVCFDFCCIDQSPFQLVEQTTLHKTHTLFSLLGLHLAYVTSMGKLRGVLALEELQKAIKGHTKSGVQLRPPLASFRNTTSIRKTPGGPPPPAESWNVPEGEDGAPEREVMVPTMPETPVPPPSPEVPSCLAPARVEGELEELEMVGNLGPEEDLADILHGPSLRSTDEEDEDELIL

[1] = system: isolated rat soleus muscles; assay: Recovery of nerve-stimulated contractile force in isolated rat soleus nerve-muscle preparations exposed to tubocurarine; assay type: cell-based; details: 50 μM compound, 40 mins exposure, after 90 mins 115 nM tubocurarine
Procedure: FIG. 2. […] Force traces from a representative muscle stimulated to contract in 1) control condition before addition of neuromuscular blocking agent, 2) the force response to stimulation after 90 minutes incubation with Tubocurarine. […] The traces presented in panel A (1, 2, 3), correspond to the dotted lines in panel B, respectively.
Recovery of force is quantified as the percentage of the force prior to tubocurarine that is recovered by the compound.
The current disclosure relates to compounds that inhibit CIC-1 ion channels and increase muscle excitability and thereby improve muscle function in clinical conditions where muscle activation is failing. Such conditions result in loss of contractile function of skeletal muscle, weakness and excessive fatigue. In this series of experiments the compounds were tested for their ability to restore contractile function of isolated rat muscle when the neuromuscular transmission had been compromised akin to neuromuscular disorders.
Experimentally, soleus muscles from 4-5 week old rats were isolated with the motor nerve remaining attached. The nerve-muscle preparations were mounted in experimental setups that enabled electrical stimulation of the motor nerve. Stimulation of the motor nerve led to activation of the muscle fibres and ensuing force production that was recorded.
After mounting the nerve-muscle preparation in the experimental setup, the contractile function of the muscle was initially assessed under the control conditions (FIG. 2A). […] The experimental condition mimics the failing neuromuscular transmission in a range of neuromuscular disorders. After addition of tubocurarine the contractile force declined over the next 90 mins to 10-50% of the control force. 50 μM of the test compound was then added and the contractile force recovered despite the continued presence of tubocurarine. To quantify the ability of the compound to restore force the percentage of the initial force that was restored was determined after 40 mins of compound exposure (FIG. 2B) and the point increase is reported in Table 3.

hindlimb muscle force = assay: In situ isometric hindlimb force in anaesthetised rats with neuromuscular transmission partially inhibited by Cisatracurium; assay type: in vivo; details: 47.2 mg/kg i.v., 80 Hz stimulation, Cisatracurium infusion, female Lewis rats
Procedure: Isometric hindlimb force was measured in 12-week old female Lewis rats in the presence and absence of compound.
Rats were placed under anesthesia with isoflurane (2-4%), intubated and subsequently connected to a micro ventilator (Microvent 1, Hallowell EMC, US). Two stimulation electrodes were inserted through the skin to stimulate the sciatic nerve. A small incision was made proximal to the ankle, to expose the Achilles tendon, which was tied by cotton string, and connected to a force transducer (Fort250, World Precision Instruments) with adjustable position (Vernier control). The Achilles tendon was then cut distal to the attached cotton string. […]
Muscle contractile properties were assessed by applying an electrical current (under supramaximal voltage conditions) to the nerve and recording the force generated by the muscle. The muscle was stretched until maximal force was obtained, when assessed by 2 Hz stimulation. Isometric force was measured every 30 seconds at 12 Hz (Twitch), 10 pulses, and at every 5 minutes at 80 Hz (Tetanic) for 1 second (80 pulses). […] The effect of test article was assessed on its ability to increase force generated from the stimulation pattern applied. The effect was assessed in the ability to increase force per se (tetanic, 80 Hz, stimulation), and the ratio between individual twitch peaks (12 Hz stimulation). […]

EC50 (CIC-1 ion channel)	Structure (SMILES)	Point increase (%) of initial force that was restored [1]	increase in tetanic force (hindlimb muscle force)
3.2 ± 2.1 µM	COC[C@H](Oc1ccc(Br)cc1C1CCC1)C(=O)O [Compound A-6, (2S)-2-(4-bromo-2-cyclobutylphenoxy)-3-methoxypropanoic acid]	35.6 ± 8.3%	–
3.7 ± 0.2 µM	COC[C@H](Oc1ccc(Br)cc1C1CC1)C(=O)O [Compound A-1, (2S)-2-(4-Bromo-2-cyclopropylphenoxy)-3-methoxypropanoic acid]	36.3* %	85%
–	COC[C@@H](Oc1ccc(Br)cc1C1CC1)C(=O)O (single isomer, unassigned) [(2R)-A-1]	0.2%	–
–	COC[C@H](Oc1cc(F)c(Br)cc1C1CC1)C(=O)O [Compound A-2, (2S)-2-(4-bromo-2-cyclopropyl-5-fluorophenoxy)-3-methoxypropanoic acid]	22.3 ± 3.8%	–
–	COC[C@@H](Oc1ccc(Br)cc1C1CCC1)C(=O)[O-].[Na+] [(2R)-A-6, Sodium (R)-2-(4-bromo-2-cyclobutylphenoxy)-3-methoxypropanoate]	−4.1 ± 1.4%	–

Reference: patent US12168643B2, “Compounds for the treatment of neuromuscular disorders” (NMD PHARMA A/S, priority 2019, dated 2024)
